From US11241436B2, “Autophagy inducers for treatment of CNS conditions” (Northwestern University, priority 2017, dated 2022)

Tested on: Aβ42
Assay: Dot blot assay of Aβ42 in brain of 5XFAD mice
Type: in vivo, mouse
Conditions: 5XFAD Becn1 F121A mice, 2 mg/kg i.p. once per day for 7 days
Description: Total protein loading was labeled by Ponceau S. N=5. **, P<0.01, t test.
Total protein loading was labeled by Ponceau S. Triplicate experiments from 4-5 mice in each group were shown. Results represent mean±s.e.m. NS, not significant; *, P<0.05; **, P<0.01; ***, P<0.001, t test.
Total protein loading was labeled by Ponceau S. Triplicate experiments from 4 mice in each group were shown.
Dot blot assay. Snap frozen hemi-brain were homogenized in 800 μl phosphate-buffered saline (PBS; Sigma-Aldrich, D8537) with 1% Triton X-100 supplemented with halt proteinase inhibitor cocktail (ThermoFisher Scientific), and halt phosphatase inhibitor cocktail (ThermoFisher Scientific). Protein concentration was quantified using BCA Assay (Pierce). For Af342 dot blots, 10 mg/ml brain homogenates were extracted in guanidine buffer (5 M guanidine-HCl [GuHCl], 50 mM Tris HCl pH 8.0) overnight at room temperature. One μl of sample was spotted in triplicate on 0.2 μm nitrocellulose membrane, and dried for 1 h at 37° C. The membrane was stained with Ponceau S, and the dot blot signal on the membrane was detected by immunostaining with Aβ42 antibody (Invitrogen, 700254, 1:1000) and HRP-conjugated secondary antibody (Santa Cruz Biotechnology, sc2004, 1:2000). Aβ42 signals were normalized to the Ponceau S staining. To separate soluble and insoluble Aβ fractions, 10 mg/ml of the total homogenated brains were centrifuged at 14000 rpm, 4° C. for 30 min. The supernatant (soluble fraction) was used directly for dot blot assays. The pellet (insoluble fraction) was extracted in guanidine buffer overnight at room temperature, and used in dot blot analyses. […] One μl of each sample was spotted on nitrocellulose membrane for dot blot analysis.
With CNC(=O)c1ccccc1Oc1nc(Nc2cc(OC)c(OC)c(OC)c2)ncc1Br [SBI-0206965, reference compound] the “Becn1 F121A-induced reduction in brain Aβ42 levels” value was “abolished the reduction”.

Tested on: not listed separately
Assay: Body weight during chronic WIN treatment
Type: in vivo, mouse
Conditions: mice of all genotypes during chronic WIN treatment
Description: N=9-13 mice/group. Results represent mean±s.e.m.
With Cc1c(C(=O)c2cccc3ccccc23)c2cccc3c2n1[C@H](CN1CCOCC1)CO3 [WIN, reference compound] the body weight was “remained constant”.

Tested on: LC3
Assay: Promega Autophagy Assay System (HiBiT-tagged LC3 reporter, autophagy flux)
Type: cell-based
Conditions: LC3 reporter signal; decrease = increased autophagy
Description: The Promega Augophagy Assay System uses LC3 to monitor the autophagy process. […] LgBiT is a […] recombinant protein derived from NanoLuc. When HiBiT associates with LgBiT, a strong luciferase activity is reconstituted. An increase in autophagy will accelerate the degradation of LC3 reporter which decreases the assay signal. In contrast, inhibition of autophagy causes the accumulation of LC3 which will increase the reporter levels and assay signal.
In the case of COC(Cn1cnc2c(c(-c3ccccc3)c(-c3ccccc3)n2Cc2ccccc2)c1=N)OC, the AC50 is reported as 0.231 µM.
In the case of N=c1c2c(-c3ccccc3)c(-c3ccccc3)n(CC3CCCCC3)c2ncn1C[C@H]1CCCC[C@@H]1O, the AC50 is reported as 0.366 µM.
N=c1c2c(-c3ccccc3)c(-c3ccccc3)n(CCc3ccccc3)c2ncn1[C@H]1CC[C@H](O)CC1 showed an AC50 of 1.16 µM.
COc1ccc(Cn2c(-c3ccccc3)c(-c3ccccc3)c3c(=N)n([C@H]4CC[C@H](O)CC4)cnc32)cc1 showed an AC50 of 1.64 µM.
With N=c1c2c(-c3ccccc3)c(-c3ccccc3)n(Cc3ccccc3)c2ncn1CCC1CCC(O)CC1 (stereo not shown) the AC50 was 1.84 µM.
For N=c1c2c(-c3ccccc3)c(-c3ccccc3)n(Cc3ccccc3)c2ncn1C1CCOCC1, the AC50 was 2.31 µM.
With COc1ccc(Cn2c(-c3ccccc3)c(-c3ccccc3)c3c(=N)n(CCO)cnc32)cc1 the AC50 was 2.59 µM.
Compound COc1ccc(Cn2c(-c3ccccc3)c(-c3ccccc3)c3c(=N)n(C4CCOCC4)cnc32)cc1 has an AC50 of 2.59 µM.
Compound N=c1c2c(-c3ccccc3)c(-c3ccccc3)n(Cc3ccc(OC(F)(F)F)cc3)c2ncn1[C@H]1CC[C@H](O)CC1 has an AC50 of 2.59 µM.
For N=c1c2c(-c3ccccc3)c(-c3ccccc3)n(Cc3ccccc3)c2ncn1C1CCC(O)CC1 (stereo not shown), the AC50 was 2.91 µM.
CO[C@H]1CC[C@H](n2cnc3c(c(-c4ccccc4)c(-c4ccccc4)n3Cc3ccccc3)c2=N)CC1 showed an AC50 of 2.91 µM.
In the case of COC1CCC(n2cnc3c(c(-c4ccccc4)c(-c4ccccc4)n3Cc3ccc(OC(F)(F)F)cc3)c2=N)CC1 (stereo not shown), the AC50 is reported as 2.91 µM.
Compound N=c1c2c(-c3ccccc3)c(-c3ccccc3)n(Cc3ccccc3)c2ncn1[C@@H]1CCCC[C@H]1O has an AC50 of 3.26 µM.
N=c1c2c(-c3ccccc3)c(-c3ccccc3)n(CCc3ccccc3)c2ncn1CCC1CCC(O)CC1 (stereo not shown) gave an AC50 of 3.66 µM.
Compound CO[C@H]1CC[C@H](n2cnc3c(c(-c4ccccc4)c(-c4ccccc4)n3CCc3ccccc3)c2=N)CC1 has an AC50 of 3.66 µM.
Work on N=c1c2c(-c3ccccc3)c(-c3ccccc3)n(CCc3ccccc3)c2ncn1CCO yielded an AC50 of 4.61 µM.
For N=c1c2c(-c3ccccc3)c(-c3ccccc3)n(CCc3ccccc3)c2ncn1CCCO, the AC50 was 4.61 µM.
For CN(C)CCn1cnc2c(c(-c3ccccc3)c(-c3ccccc3)n2CCc2ccccc2)c1=N, the AC50 was 5.17 µM.
COc1ccc(Cn2c(-c3ccccc3)c(-c3ccccc3)c3c(=N)n(CCCCCO)cnc32)cc1 showed an AC50 of 5.17 µM.
Compound COc1ccc(Cn2c(-c3ccccc3)c(-c3ccccc3)c3c(=N)n(CCCO)cnc32)cc1 has an AC50 of 5.17 µM.
With N=c1c2c(-c3ccccc3)c(-c3ccccc3)n(Cc3ccccc3)c2ncn1CCO the AC50 was 5.8 µM.
For N=c1c2c(-c3ccccc3)c(-c3ccccc3)n(CC3CC3)c2ncn1C1CCOCC1, the AC50 was 7.31 µM.
N=c1c2c(-c3ccccc3)c(-c3ccccc3)n(CCc3ccccc3)c2ncn1[C@@H]1CCCC[C@H]1O showed an AC50 of 7.31 µM.
In the case of N=c1c2c3c(n(CCc4ccccc4)c2ncn1C1CCOCC1)CCCC3, the AC50 is reported as 7.31 µM.
For N=c1c2c(-c3ccccc3)c(-c3ccccc3)n(Cc3ccccc3)c2ncn1CC1COC1, the AC50 was 8.2 µM.
With COc1ccc(Cn2c(-c3ccccc3)c(-c3ccccc3)c3c(=N)n(CC4CCOCC4)cnc32)cc1 the AC50 was 9.2 µM.
Work on N=c1c2c(-c3ccccc3)c(-c3ccccc3)n(Cc3ccccc3)c2ncn1[C@H]1CC[C@H](CO)CC1 yielded an AC50 of 9.2 µM.
For CCOC(CCCn1cnc2c(c(-c3ccccc3)c(-c3ccccc3)n2Cc2ccccc2)c1=N)OCC, the AC50 was 20.6 µM.
COCCn1cnc2c(c(-c3ccccc3)c(-c3ccccc3)n2CCc2ccccc2)c1=N gave an AC50 of 20.6 µM.
N=c1c2c(-c3ccccc3)c(-c3ccccc3)n(CCc3ccccc3)c2ncn1[C@H](CO)Cc1ccccc1 gave an AC50 of 20.6 µM.
CCOC(CCCn1cnc2c(c(-c3ccccc3)c(-c3ccccc3)n2Cc2ccc(OC)cc2)c1=N)OCC gave an AC50 of 20.6 µM.
Compound COc1ccc(Cn2c(-c3ccccc3)c(-c3ccccc3)c3c(=N)n([C@H](C)[C@@H](O)c4ccccc4)cnc32)cc1 has an AC50 of 20.6 µM.
In the case of COc1ccc(Cn2c(-c3ccccc3)c(-c3ccccc3)c3c(=N)n(CC4CCCO4)cnc32)cc1 (stereo not shown), the AC50 is reported as 20.6 µM.
COc1ccc(Cn2c(-c3ccccc3)c(-c3ccccc3)c3c(=N)n(N4CCOCC4)cnc32)cc1 showed an AC50 of 20.6 µM.
With N=c1c2c(-c3ccccc3)c(-c3ccccc3)n(Cc3ccccc3)c2ncn1CC1CCOC1 (stereo not shown) the AC50 was 20.6 µM.
For COc1ccc(-c2c(-c3ccc(OC)cc3)n(Cc3ccccc3)c3ncn(CCCO)c(=N)c23)cc1, the AC50 was 20.6 µM.
Compound N=c1c2c(-c3ccccc3)c(-c3ccccc3)n(CC3CC3)c2ncn1CC1CCOCC1 has an AC50 of 20.6 µM.
COc1ccc(-c2c(-c3ccc(OC)cc3)n(Cc3ccccc3)c3ncn(CC4CCOCC4)c(=N)c23)cc1 showed an AC50 of 20.6 µM.
In the case of COc1ccc(-c2c(-c3ccc(OC)cc3)n(Cc3ccccc3)c3ncn([C@@H]4CCCC[C@H]4CO)c(=N)c23)cc1, the AC50 is reported as 20.6 µM.
In the case of Cc1ccc(-c2c(C(=O)CF)n(CCCO)c3ncnc(N)c23)cc1, the AC50 is reported as 20.6 µM.
Work on N=c1c2c(-c3ccccc3)cn(Cc3ccccc3)c2ncn1CCCN1CCN(c2ccccc2)CC1 yielded an AC50 of 23.1 µM.
For N=c1c2c(-c3ccccc3)c(-c3ccccc3)n(Cc3ccccc3)c2ncn1[C@H](CO)Cc1ccccc1, the AC50 was 23.1 µM.
COC(Cn1cnc2c(c(-c3ccccc3)c(-c3ccccc3)n2CCc2ccccc2)c1=N)OC showed an AC50 of 23.1 µM.
Work on COc1ccc(CCn2cnc3c(c(-c4ccccc4)c(-c4ccccc4)n3Cc3ccccc3)c2=N)cc1OC yielded an AC50 of 23.1 µM.
N=c1c2c(-c3ccccc3)c(-c3ccccc3)n(CCc3ccccc3)c2ncn1CC1CCCO1 (stereo not shown) gave an AC50 of 23.1 µM.
Work on COCCn1cnc2c(c(-c3ccccc3)c(-c3ccccc3)n2Cc2ccc(OC)cc2)c1=N yielded an AC50 of 23.1 µM.
In the case of COc1ccc(-c2c(-c3ccc(OC)cc3)n(Cc3ccccc3)c3ncn(C4CCOCC4)c(=N)c23)cc1, the AC50 is reported as 23.1 µM.
Work on Cc1c(C)n(Cc2ccccc2)c2ncn(C3CCOCC3)c(=N)c12 yielded an AC50 of 23.1 µM.
Cc1ccc(-c2c(C(=O)CCl)n(CCCO)c3ncnc(N)c23)cc1 showed an AC50 of 23.1 µM.
N=c1c2c(-c3ccccc3)cn(Cc3ccc(Br)cc3)c2ncn1CCCCO showed an AC50 of 25.9 µM.
N=c1c2c(-c3ccccc3)cn(Cc3ccccc3)c2ncn1[C@H](CO)Cc1ccccc1 gave an AC50 of 25.9 µM.
Work on N=c1c2c(-c3ccccc3)cn(Cc3ccccc3)c2ncn1C(CO)(CO)CO yielded an AC50 of 29.1 µM.
Work on N=c1c2c(-c3ccccc3)c(-c3ccccc3)n(Cc3ccccc3)c2ncn1CCCN1CCN(c2ccccc2)CC1 yielded an AC50 of 29.1 µM.
CN(C)CCCn1cnc2c(c(-c3ccccc3)c(-c3ccccc3)n2Cc2ccccc2)c1=N showed an AC50 of 29.1 µM.
With C[C@H]([C@@H](O)c1ccccc1)n1cnc2c(c(-c3ccccc3)c(-c3ccccc3)n2Cc2ccccc2)c1=N the AC50 was 29.1 µM.
With N=c1c2c(-c3ccccc3)c(-c3ccccc3)n(Cc3ccccc3)c2ncn1C1CCN(Cc2ccccc2)CC1 the AC50 was 29.1 µM.
Compound CN(C)CCCn1cnc2c(c(-c3ccccc3)c(-c3ccccc3)n2CCc2ccccc2)c1=N has an AC50 of 32.6 µM.

Tested on: CB1R signaling
Assay: CB1R signaling in brain (phosphorylation of MEK and JNK) after chronic WIN
Type: in vivo, mouse
Conditions: repeated WIN treatment 14 d
Description: WT mice were treated with either daily WIN or vehicle for 14 d, and then subject to an acute dosage of WIN 1 h prior to collection of brain samples.
To investigate whether restoration of CB1R signaling underlies the behavioral regulation by autophagy activation, the level and functionality of CB1R in mouse brain after co-administration of chronic cannabinoids and autophagy inducers were analyzed. […] To determine whether the increased level of CB1R represents CB1R re-sensitization in the brain, the agonist-induced phosphorylation of signaling kinases downstream of CB1R after chronic WIN exposure were analyzed.
In the case of Cc1c(C(=O)c2cccc3ccccc23)c2cccc3c2n1[C@H](CN1CCOCC1)CO3 [WIN, reference compound], the “activation of CB1R (CNR1) signaling induced by agonists” value is reported as “decreased activation”.

Tested on: WT mice
Assay: Analgesic tolerance test during chronic WIN treatment
Type: in vivo, mouse
Conditions: after 14 d of repeated WIN dosage (day 14)
Description: Briefly, mice were injected with WIN for 14 d, and analgesic tolerance was measured without WIN treatment on day 0, and after 1-h WIN treatment on day 1 and day 14.
There were no genotype differences either in basal pain sensitivity to infrared heat-generated pain (agonist-free, day 0) (FIG. 2C), or in analgesic effects of acute WIN treatment prior to chronic WIN administration (day 1) (FIG. 2D).
In the case of Cc1c(C(=O)c2cccc3ccccc23)c2cccc3c2n1[C@H](CN1CCOCC1)CO3 [WIN, reference compound], the “analgesic effect of WIN” value is reported as “markedly decreased”.
